Laboratory results published in patent US7067633B2, “Targeting cellular entry, cell survival, and pathogenicity by dynein light chain 1/PIN in human cells” (Board of Regents, The University of Texas System, priority 2003, dated 2006).
Starred links: 1 amine or outer side, 2 acyl side, 3 side chain; linkers in the order of their positions; H or OH if unused. Positions of bridges follow the written chain, without caps; N, C: chain ends. Non-standard residues stand in square brackets, D forms with d. Residues, ends and D or L forms follow the SMILES beside them. Chains are numbered I, II in the order given. Actinocin(9to1) = Cc1c2oc3c(C)ccc(C(=O)[*:1])c3nc-2c(C(=O)[*:2])c(N)c1=O; NMeV = CN[C@H](C(=O)O)C(C)C; Sar = CNCC(=O)O

Legend:
[1] = tested on: DLC1; assay: DLC1 protein and mRNA expression; type: cell-based, human; details: MCF-7 cells
Protocol: MCF-7/Tam-sen, MCF-7/TAMR1 and Ishikawa cells were treated with E2 (10^−9M) or Tam (10^−9M) for 24 h, and cell lysates were assayed for DLC1 and Pak1 protein expression. […] FIG. 21C: Effect of different periods of E2 treatment and cycloheximide (CHX) and Actinomycin D (ACTD) treatment on the ability of E2 to upregulate DLC1 mRNA in MCF-7 cells.

[2] = tested on: DLC1-ER interaction; assay: Coimmunoprecipitation of DLC1 with ER; type: cell-based, human; details: growth factor stimulation
Protocol: In vitro-translated ^35ER were incubated with GST-DLC1, and analyzed by SDS-PAGE and autoradiography. FIG. 13B: Identification of ER domains that interact with DLC1. GST-ER fusion proteins containing different deletion constructs were incubated with in vitro-translated 35S-DLC1 (aa 1-89), and binding was analyzed by GST pull-down assay. FIG. 13C: Mapping of the ER-binding region in DLC1. GST-fusions of various DLC1 deletion constructs were incubated with in vitro-translated ^35S-ER, and binding was analyzed by GST pull-down assay. […] Cell lysates from Ishikawa cells was immunoprecipitated (IP) with anti-ERá mAb and immunoblotted with anti-DLC1 or ER Abs. […] Cell lysates from MCF-7/TAM-sen or Ishikawa cells were treated with Tam (10^−9M) for 24 h, and IP with anti-ERá mAb and immunoblotted with anti-DLC1 or ER Abs. […] MCF-7/DLC1 cells were treated with or without Dox for 24 h and then treated with E2 (10^−9M) or Tam (10^−8M) for 24 h, and IP with anti-ERá mAb and immunoblotted with anti-DLC1 or ER Abs. FIG. 13G: Characterization of MCF-7 cells expressing T7-DLC1-Ser88A mutant under a tetracycline-inducible promoter. […] MCF-7/DLC1 and MCF-7/DLC1-Ser88A cells were treated with or without Dox for 24 h and cell lysates were IP with anti-ERá mAb and blotted with anti-DLC1, ERá and T7 Abs.
To this end, MCF-7 cells expressing a T7-DLC1 mutant in which Ser88 and amino acid 89 were deleted under a tet-inducible promoter (MCF-7/DLC1-1-87 mutant) were generated (FIG. 13G).

[3] = tested on: DLC1/PIN; assay: In vivo 32P-orthophosphate labeling and immunoprecipitation of T7-DLC1/PIN; type: cell-based, human; details: MCF-7 cells, EGF treatment
Protocol: FIGS. 2A–2G—MapDLC1/PINg of interaction domains of Pak1 and DLC1/PIN. FIG. 2A: Identification of Pak1 domains that interact with DLC1/PIN. GST-Pak1 fusion proteins containing wild-type (amino acids 1–545), kinase domain (amino acids 270–545), N-terminal domain (amino acids 1–132), PIX binding domain (amino acids 132–270), Nck-binding domain (amino acids 1–75), Cdc42/Rac-interacting (CRIB) domain (amino acids 52–132), and auto-inhibitory domain (amino acids 75–149) were incubated with in vitro translated DLC1/PIN (amino acids 1–89), and binding was analyzed by GST pull-down assay. FIG. 2B: Identification of the DLC1/PIN region that is involved in the binding of Pak1. GST-fusions of various lengths of DLC1/PIN were used in the GST pull-down assay using ^35S-labelled Pak1 (amino acids 1–545). FIGS. 2C–2G—Pak1 phosphorylation of DLC1/PIN. FIG. 2C: In vitro kinase assay using GST-DLC1/PIN as a substrate and purified bacterially expressed Pak1 as an enzyme. MBP was used as a positive control. FIG. 2D: ZR75R cells stably expressing T7-DLC1/PIN were labeled in vivo with ^32P-orthophosphate, serum starved, treated with EGF or HRG, and immunoprecipitated and phosphorylation status of DLC1/PIN was visualized by autoradiography. […] Cells were metabolically labeled with ^32P orthophosphate, treated with or without EGF (1 nM) and phosphorylation of T7-DLC1/PIN was analyzed by immunoprecipitation. […]

[4] = tested on: MDA-MB231 cells; assay: Vesicle formation and DLC1/PIN-Pak1 colocalization after growth factor stimulation; type: cell-based, human; details: serum-starved cells, 20 min
[5] = tested on: NIH3T3 cells; assay: UV-induced apoptosis, Lamin A/C nuclear integrity scoring; type: cell-based, murine
Protocol: FIGS. 5A–5C—Requirement of DLC1/PIN and Pak1 interaction in cell proliferation and survival. FIG. 5A: Equal number of cells ZR75R stable cells expressing DLC1/PIN wild type or DLC1/PIN^del88-89 mutant were plated and cell proliferation was determined by trypsinizing and counting cells using a coulter counter. Each colne was plated in triplicate and experiment was repeated twice with similar results. FIG. 5B: Cell cycle progression of DLC1/PIN wild type or mutant clones was analyzed by FACS analysis. […] For example, a smooth nuclear membrane was scored as nonapoptotic, as opposed to membrane blebbing or rupture, which was scored as apoptotic. Nuclei committed to enter mitosis were not scored in either of these groups because they were easily identified for their specific “pulverized” pattern of Lamin A/C staining. Ten randomly selected fields were analyzed for each condition. […]
DLC1/PIN regulation of cell growth and survival. […] After 10 h, apoptosis was quantitated by scoring the integrity of the nuclear membrane in cells expressing both RFP and myc tags to detect DLC/DLC1/PIN and Pak1 respectively (FIG. 5D).

[6] = tested on: SKBR-3 cells; assay: Pak1-mediated macropinocytosis, vesicle formation by confocal microscopy; type: cell-based, human; details: cotransfected with GFP-Pak1
Protocol: FIG. 3—Requirement of DLC1/PIN in Pak1 mediated macropinocytosis. SKBR-3 cells were cotransfected with RFP-DLC1/PIN and GFP-Pak1 (upper panel), RFP-DLC1/PIN-S88A, and GFP-Pak1 (middle panel) and RFP-DLC1-1-66, and GFP-Pak1 (lower panel). Vesicle formation and localization of GFP and RFP proteins were analyzed by confocal microscopy. Ten randomly selected fields were analyzed for each condition. The experiment was repeated twice with similar results. Quantitation of vesicles formation was done using the following scoring system. −, cells containing 0–9 vesicles; +, cells containing 10–20 vesicles; and ++, cells containing >20 vesicles.
Requirement of DLC1/PIN in Pak1 mediated macropinocytosis. […] The inventors have used the fluorescein isothiocyanate (FITC)-labeled Dextran as a marker of endocytosis using a well-established dextran beads uptake assay (Dharmawardhane et al., 2000). […]
SK-BR3 cells were cotransfected with RFP-DLC1 and GFP-Pak1 (upper panel), RFP-DLC1-S88A and GFP-Pak1 (middle panel), and RFP-DLC8-1-66 and GFP-Pak1 (bottom panel). Vesicle formation and localization of GFP and RFP proteins were analyzed by confocal microscopy. Ten randomly selected fields were analyzed for each condition. […]

Cc1c2oc3c(C)ccc(C(=O)N[C@@H]4C(=O)N[C@H](C(C)C)C(=O)N5CCC[C@H]5C(=O)N(C)CC(=O)N(C)[C@@H](C(C)C)C(=O)O[C@@H]4C)c3nc-2c(C(=O)N[C@@H]2C(=O)N[C@H](C(C)C)C(=O)N3CCC[C@H]3C(=O)N(C)CC(=O)N(C)[C@@H](C(C)C)C(=O)O[C@@H]2C)c(N)c1=O [actinomycin D] (I: T[dV]P[Sar][NMeV] / II: T[dV]P[Sar][NMeV]; ester I:1-I:C, II:1-II:C; linker I:N-II:N via Actinocin(9to1))
estrogen-induced DLC1 expression [1]: effectively blocked

EGF: epidermal growth factor, physiologic Pak1 activator
interaction of DLC1 with ER ([2]; tamoxifen-resistant Ishikawa cells): promotes
interaction of DLC1 with ER ([2]; tamoxifen-sensitive MCF-7 cells): not
DLC1/PIN phosphorylation [3]: stimulated DLC1/PIN phosphorylation
vesicle-like structures with colocalization of DLC1/PIN and Pak1 [4]: substantial enhancement of vesicle-like structures

C[C@]12CC[C@@H]3c4ccc(O)cc4C[C@@H](CCCCCCCCC[S+]([O-])CCCC(F)(F)C(F)(F)F)[C@H]3[C@@H]1CC[C@@H]2O (stereo partly drawn) [ICI 182,780]
estrogen-induced DLC1 expression [1]: effectively blocked

S88A DLC1/PIN: DLC1/PIN mutant, serine 88 to alanine, lacking the Pak1 phosphorylation site
UV-induced apoptosis substantially reduced ([5]; 10 h after UV-irradiation): not
protection from UV-induced apoptosis by overexpression of active Pak1 ([5]; cotransfected with catalytically active Pak1): unable to protect
Pak1-induced vesicle formation [6]: substantially interfered
